According to US10815241B2, “Optically active azabicyclo ring derivative” (priority 2018, dated 2020):
Like-named read-outs stand apart in the source and are kept apart here.

Key:
MOLM-13 cells = assay: Test 2: inhibition of cell proliferation, MOLM-13; type: cell-based; settings: 7 days, PrestoBlue cell viability
Method: (§1) RS4; 11 cells were obtained from American Type Culture Collection (ATCC). […] MOLM-13 cells were separately obtained from DSMZ (Deutsche Sammlung von Mikroorganismen und Zellkulturen GmbH).
(§2) The cells were plated to a 96-well plate in 2000 cells/well, each test compound was added thereto to adjust the final concentration of DMSO to 0.1% of DMSO, and the cells were cultured for 7 days. After the cultivation, the cell viability was calculated with PrestoBlue™ Cell Viability Reagent (Invitrogen, A13261).

[1] = target: hERG (human Ether-a-go-go Related Gene) (Homo sapiens (Human), UniProt Q12809); assay: Test 4: hERG inhibition (QPatch HT, CHO cells stably expressing hERG); settings: for hERG/RS4; 11: hERG IC50 divided by RS4;11 proliferation IC50
Chain of hERG (human Ether-a-go-go Related Gene) (Q12809 whole entry): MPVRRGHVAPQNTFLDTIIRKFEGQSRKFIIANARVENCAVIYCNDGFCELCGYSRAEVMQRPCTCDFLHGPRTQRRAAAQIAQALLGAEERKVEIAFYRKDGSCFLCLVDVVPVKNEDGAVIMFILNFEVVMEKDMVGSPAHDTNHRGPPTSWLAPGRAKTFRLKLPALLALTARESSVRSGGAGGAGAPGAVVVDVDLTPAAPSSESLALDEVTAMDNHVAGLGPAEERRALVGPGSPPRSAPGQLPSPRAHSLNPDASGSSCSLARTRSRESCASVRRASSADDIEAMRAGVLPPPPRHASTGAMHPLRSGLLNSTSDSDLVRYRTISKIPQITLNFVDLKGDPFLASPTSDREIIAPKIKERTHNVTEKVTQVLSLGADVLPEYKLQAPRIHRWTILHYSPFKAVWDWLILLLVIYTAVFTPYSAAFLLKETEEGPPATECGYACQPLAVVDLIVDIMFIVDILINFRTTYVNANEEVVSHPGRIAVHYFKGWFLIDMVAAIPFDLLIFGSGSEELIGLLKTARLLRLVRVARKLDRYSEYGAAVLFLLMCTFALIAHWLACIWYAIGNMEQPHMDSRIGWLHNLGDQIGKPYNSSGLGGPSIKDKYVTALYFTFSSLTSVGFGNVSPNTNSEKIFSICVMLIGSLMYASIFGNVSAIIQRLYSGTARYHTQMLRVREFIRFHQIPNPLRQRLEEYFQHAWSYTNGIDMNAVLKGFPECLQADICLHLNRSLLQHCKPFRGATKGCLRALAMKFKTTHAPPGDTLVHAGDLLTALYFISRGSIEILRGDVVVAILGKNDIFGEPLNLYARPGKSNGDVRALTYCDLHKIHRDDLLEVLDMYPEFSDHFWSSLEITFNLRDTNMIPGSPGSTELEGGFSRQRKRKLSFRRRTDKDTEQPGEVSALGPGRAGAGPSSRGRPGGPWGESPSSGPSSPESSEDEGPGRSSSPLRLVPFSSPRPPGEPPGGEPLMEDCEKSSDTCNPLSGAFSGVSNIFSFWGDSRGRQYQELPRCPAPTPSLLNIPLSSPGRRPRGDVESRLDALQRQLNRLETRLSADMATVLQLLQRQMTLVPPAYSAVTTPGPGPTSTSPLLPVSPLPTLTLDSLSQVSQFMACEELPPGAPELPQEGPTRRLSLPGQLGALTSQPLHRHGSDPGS

MEIS1 = assay: Test 3: inhibition of mRNA transcription, MEIS1 in MV4;11 cells; type: cell-based; settings: for mRNA at 1 μM (% control) MEIS1: MV4;11 cells, 20 to 24 hours, relative to GAPDH; for mRNA transcription inhibition activity: statement in words, MEIS1 and HOXA9, MV4;11 cells
Text: (§3) MV4; 11 cells were obtained from American Type Culture Collection (ATCC). […] The expression level of each obtained gene (MEIS1 and HOXA9) was fitted with the expression level of mRNA of GAPDH.

HOXA9 = assay: Test 3: inhibition of mRNA transcription, HOXA9 in MV4;11 cells; type: cell-based; settings: 20 to 24 hours, relative to GAPDH
Text: as §3

[2] = target: Menin-MLL binding (His-Menin1-615 / MLL1-172-FLAG) (Homo sapiens (Human), UniProt O00255); assay: Test 1: inhibition of the Menin-MLL binding (HTRF); settings: for IC50: Menin-MLL binding inhibition; for Menin-MLL binding inhibition activity: statement in words on the table of Test 1
Chain of Menin-MLL binding (His-Menin1-615 / MLL1-172-FLAG) (O00255 other isoform, or with tags, fused parts or gaps): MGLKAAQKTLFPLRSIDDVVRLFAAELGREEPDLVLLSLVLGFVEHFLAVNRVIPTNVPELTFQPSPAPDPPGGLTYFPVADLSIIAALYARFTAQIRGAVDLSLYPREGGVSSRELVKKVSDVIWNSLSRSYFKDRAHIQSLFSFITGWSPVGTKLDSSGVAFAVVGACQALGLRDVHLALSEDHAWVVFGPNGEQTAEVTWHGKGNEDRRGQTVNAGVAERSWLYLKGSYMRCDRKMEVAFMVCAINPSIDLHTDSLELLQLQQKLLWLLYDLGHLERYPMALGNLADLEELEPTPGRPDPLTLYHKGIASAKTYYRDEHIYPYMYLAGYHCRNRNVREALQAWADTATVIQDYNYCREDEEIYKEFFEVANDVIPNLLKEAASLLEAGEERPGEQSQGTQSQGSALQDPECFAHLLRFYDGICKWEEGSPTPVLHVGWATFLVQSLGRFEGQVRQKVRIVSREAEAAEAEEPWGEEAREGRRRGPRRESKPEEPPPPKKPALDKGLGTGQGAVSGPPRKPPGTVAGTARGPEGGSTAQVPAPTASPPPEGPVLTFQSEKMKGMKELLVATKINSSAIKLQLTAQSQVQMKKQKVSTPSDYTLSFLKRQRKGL
Method: After the incubation, the signal was detected with RUBYstar (BMG LABTECH).

RS4; 11 cells = assay: Test 2: inhibition of cell proliferation, RS4;11; type: cell-based; settings: for IC50: RS4;11 cells, 7 days, PrestoBlue cell viability; for cell proliferation inhibition activity: statement in words, RS4;11 and MOLM-13 cells
Method: as §1, §2

[3] = read-out: hERG inhibition IC50, hERG current, CHO cells

Row | Structure (SMILES) | IC50 (MOLM-13 cells; Homo sapiens) [nM] | IC50 [1] [nM] | gap between RS4; 11 proliferation IC50 and hERG current IC50 [1] | hERG/RS4; 11 [1] | mRNA at 1 μM (% control) MEIS1 (MEIS1) [% control] | mRNA transcription inhibition activity (MEIS1) | mRNA at 1 μM (% control) HOXA9 (HOXA9) [% control] | IC50 [2] [nM] | Menin-MLL binding inhibition activity [2] | IC50 (RS4; 11 cells; Homo sapiens) [nM] | cell proliferation inhibition activity (RS4; 11 cells) | IC50 [1, 3] [nM] | IC50 (MOLM-13 cells) [nM] | IC50 (RS4; 11 cells) [nM]
1 | CC(C)N(C(=O)c1cc(F)ccc1Oc1cncnc1N1CC2(CCN(C(=O)[C@H]3N[C@H]4CC[C@@H]3C[C@@H]4CC3CC3)CC2)C1)C(C)C [Example 1, 2-[(4-{7-[(1S,3S,4R,6S)-6-(Cyclopropylmethyl)-2-azabicyclo[2.2.2]octane-3-carbonyl]-2,7-diazaspiro[3.5]nonan-2-yl}pyrimidin-5-yl)oxy]-5-fluoro-N,N-di(propan-2-yl)benzamide] | 20 | 4000 | more than 100 fold | >400 | 11.8 | showed the mRNA transcription inhibition activity | 40.2 | 5.3 | potent | < 10 | potent | – | – | –
2 | CC(C)N(C(=O)c1cc(F)ccc1Oc1cncnc1N1CCC2(CCN(C(=O)[C@H]3N[C@H]4CC[C@@H]3CC4)C2)C1)C(C)C (stereo partly drawn) [Example 2, 2-[(4-{7-[(1R,3S,4R)-2-Azabicyclo[2.2.2]octane-3-carbonyl]-2,7-diazaspiro[4.4]nonan-2-yl}pyrimidin-5-yl)oxy]-5-fluoro-N,N-di(propan-2-yl)benzamide] | 810 | 11800 | – | 13.6 | – | – | – | – | – | 870 | – | – | – | –
3 | CC(C)N(C(=O)c1cc(F)ccc1Oc1cncnc1N1CC2(CN(C(=O)[C@H]3N[C@H]4CC[C@@H]3C[C@@H]4CC3CC3)C2)C1)C(C)C [Example 3, 2-[(4-{6-[(1S,3S,4R,6S)-6-(cyclopropylmethyl)-2-azabicyclo[2.2.2]octane-3-carbonyl]-2,6-diazaspiro[3.3]heptan-2-yl}pyrimidin-5-yl)oxy]-5-fluoro-N,N-di(propan-2-yl)benzamide] | 10 | 6200 | more than 100 fold | 620 | 11.9 | showed the mRNA transcription inhibition activity | 39.6 | < 3 | particularly potent | 30 | potent | – | – | –
4 | C=C1C[C@@H]2CC[C@H]1[C@@H](C(=O)N1CCC3(CC1)CN(c1ncncc1Oc1ccc(F)cc1C(=O)N(C(C)C)C(C)C)C3)N2 [Example 6, 5-Fluoro-2-[(4-{7-[(1S,3S,4R)-5-methylidene-2-azabicyclo[2.2.2]octane-3-carbonyl]-2,7-diazaspiro[3.5]nonan-2-yl}pyrimidin-5-yl)oxy]-N,N-di(propan-2-yl)benzamide] | 30 | – | – | – | 15.1 | showed the mRNA transcription inhibition activity | 39.3 | – | – | 20 | – | – | – | –
5 | C=C1C[C@@H]2CC[C@H]1[C@@H](C(=O)N1CC3(C1)CN(c1ncncc1Oc1ccc(F)cc1C(=O)N(C(C)C)C(C)C)C3)N2 [Example 7, 5-fluoro-2-[(4-{6-[(1S,3S,4R)-5-methylidene-2-azabicyclo[2.2.2]octane-3-carbonyl]-2,6-diazaspiro[3.3]heptan-2-yl}pyrimidin-5-yl)oxy]-N,N-di(propan-2-yl)benzamide] | – | – | – | – | – | showed the mRNA transcription inhibition activity | – | – | – | – | – | – | – | –
6 | C=C1C[C@H]2CC[C@@H]1N[C@@H]2C(=O)N1CCC2(CC1)CN(c1ncncc1Oc1ccc(F)cc1C(=O)N(C(C)C)C(C)C)C2 [Example 8, 5-fluoro-2-[(4-{7-[(1S,3S,4R)-6-methylidene-2-azabicyclo[2.2.2]octane-3-carbonyl]-2,7-diazaspiro[3.5]nonan-2-yl}pyrimidin-5-yl)oxy]-N,N-di(propan-2-yl)benzamide] | 110 | 12300 | more than 100 fold | 137 | 17.1 | – | 40.1 | – | – | 90 | – | – | – | –
7 | C=C1C[C@H]2CC[C@@H]1N[C@@H]2C(=O)N1CC2(C1)CN(c1ncncc1Oc1ccc(F)cc1C(=O)N(C(C)C)C(C)C)C2 [Example 9, 5-fluoro-2-[(4-{6-[(1S,3S,4R)-6-methylidene-2-azabicyclo[2.2.2]octane-3-carbonyl]-2,6-diazaspiro[3.3]heptan-2-yl}pyrimidin-5-yl)oxy]-N,N-di(propan-2-yl)benzamide] | 80 | > 10000 | more than 100 fold | >125 | 17.0 | – | 41.2 | – | – | 80 | – | – | – | –
8 | CC(C)N(C(=O)c1cc(F)ccc1Oc1cncnc1N1CC2(CN(C(=O)[C@H]3NC4CCC3CC4)C2)C1)C(C)C [Example 11, 2-[(4-{6-[(1R,3S,4R)-2-azabicyclo[2.2.2]octane-3-carbonyl]-2,6-diazaspiro[3.3]heptan-2-yl}pyrimidin-5-yl)oxy]-5-fluoro-N,N-di(propan-2-yl)benzamide] | – | – | – | >500 | 13.1 | showed the mRNA transcription inhibition activity | 36.5 | – | – | – | – | > 10000 | – | –
9 | CC(C)N(C(=O)c1cc(F)ccc1Oc1cncnc1N1CC2(CCN(C(=O)[C@H]3N[C@H]4CC[C@@H]3C(=O)C4)CC2)C1)C(C)C [Example 12, 5-fluoro-2-[(4-{7-[(1S,3S,4S)-5-oxo-2-azabicyclo[2.2.2]octane-3-carbonyl]-2,7-diazaspiro[3.5]nonan-2-yl}pyrimidin-5-yl)oxy]-N,N-di(propan-2-yl)benzamide] | 250 | > 100000 | more than 100 fold | >400 | – | – | – | – | – | 250 | – | – | – | –
10 | CC(C)N(C(=O)c1cc(F)ccc1Oc1cncnc1N1CC2(CCN(C(=O)[C@H]3N[C@H]4CC[C@@H]3[C@@H](F)[C@H]4CC3CC3)CC2)C1)C(C)C [Example 14, 2-[(4-{7-[(1S,3S,4S,5S,6S)-6-(cyclropylmethyl)-5-fluoro-2-azabicyclo[2.2.2]octane-3-carbonyl]-2,7-diazaspiro[3.5]nonan-2-yl}pyrimidin-5-yl)oxy]-5-fluoro-N,N-di(propan-2-yl)benzamide] | – | – | more than 100 fold | – | – | – | – | – | – | – | potent | 11700 | 40 | 20
11 | CC(C)N(C(=O)c1cc(F)ccc1Oc1cncnc1N1CC2(CN(C(=O)[C@H]3N[C@@H]4CC[C@H]3C4)C2)C1)C(C)C [Example 15, 2-[(4-{6-[(1R,3S,4S)-2-azabicyclo[2.2.1]heptane-3-carbonyl]-2,6-diazaspiro[3.3]heptan-2-yl}pyrimidin-5-yl)oxy]-5-fluoro-N,N-di(propan-2-yl)benzamide] | – | > 100000 | – | >6250 | – | – | – | – | – | – | – | – | – | –
12 | CC(C)N(C(=O)c1cc(F)ccc1Oc1cncnc1N1CC2(CCN(C(=O)[C@H]3N[C@@H]4CC[C@H]3C4)CC2)C1)C(C)C [Example 16, 2-[(4-{7-[(1R,3S,4S)-2-azabicyclo[2.2.1]heptane-3-carbonyl]-2,7-diazaspiro[3.5]nonan-2-yl}pyrimidin-5-yl)oxy]-5-fluoro-N,N-di(propan-2-yl)benzamide] | 40 | > 100000 | – | >3571 | – | – | – | – | – | – | – | – | – | –
13 | C=C1C[C@@H]2C[C@H]1[C@@H](C(=O)N1CCC3(CC1)CN(c1ncncc1Oc1ccc(F)cc1C(=O)N(C(C)C)C(C)C)C3)N2 [Example 18, 5-fluoro-2-[(4-{7-[(1S,3S,4R)-5-methylidene-2-azabicyclo[2.2.1]heptane-3-carbonyl]-2,7-diazaspiro[3.5]nonan-2-yl}pyrimidin-5-yl)oxy]-N,N-di(propan-2-yl)benzamide] | 40 | 46100 | – | >2095 | – | – | – | – | – | – | – | – | – | –
14 | CC(C)N(C(=O)c1cc(F)ccc1Oc1cncnc1N1CC2(CCN(C(=O)[C@H]3N[C@H]4CC[C@@H]3[C@H](F)[C@@H]4CC3CC3)CC2)C1)C(C)C [Example 19, 2-[(4-{7-[(1S,3S,4S,5R,6R)-6-(cyclopropylmethyl)-5-fluoro-2-azabicyclo[2.2.2]octane-3-carbonyl]-2,7-diazaspiro[3.5]nonan-2-yl}pyrimidin-5-yl)oxy]-5-fluoro-N,N-di(propan-2-yl)benzamide] | < 10 | 6900 | more than 100 fold | >690 | – | – | – | – | – | < 10 | – | – | – | –
15 | [2H]C([2H])=C1C[C@@H]2CC[C@H]1[C@@H](C(=O)N1CCC3(CC1)CN(c1ncncc1Oc1ccc(F)cc1C(=O)N(C(C)C)C(C)C)C3)N2 [Example 20, 5-Fluoro-2-[(4-{7-[(1S,3S,4R)-5-(^2H2)methylidene-2-azabicyclo[2.2.2]octane-3-carbonyl]-2,7-diazaspiro[3.5]nonan-2-yl}pyrimidin-5-yl)oxy]-N,N-di(propan-2-yl)benzamide] | < 30 | – | – | – | – | – | – | – | – | – | – | – | – | –
